Experimental findings from patent US3956292A, “7-(α-FUROYLUREIDOARYL AND CYCLOHEXADIENYLACETAMIDO) CEPHALOSPORIN ANTIBIOTICS” (Eli Lilly and Company, priority 1975, dated 1976) are described below.

What all share (assay type): cell-based
Assay [1] has as its system Aerobacter aerogenes. The assay is described as follows: Antibiotic activity in vitro, MIC by gradient plate method. To be noted: Klebsiella aerogenes. As for the experimental part: (§1) The antibiotic activity of the compounds of the invention is illustrated by the in vitro data presented in the following Tables I and II for two of the preferred compounds. In the tables, the minimum inhibitory concentrations (MIC) of the test compounds versus the indicated gram-positive and gram-negative microorganisms is presented. The MIC values were determined by the gradient plate method which is essentially the method described by Bryson and Szybalski, Science, 116, 45-46 (1952).
(§2) Table II lists the inhibitory activity in terms of MIC values against clinical isolates of penicillin resistant Staphylococcus microorganisms both in the presence of and in the absence of serum.

Assay [2] relates to Escherichia coli. Described as above. As for the experimental part:
as §1, §2

Assay [3] relates to Klebsiella pneumoniae. Described as above. As for the experimental part:
as §1, §2

Assay [4] relates to Pseudomonas aeruginosa. Described as above. As for the experimental part:
as §1, §2

Assay [5] relates to Salmonella heidelberg. The description is as above. To be noted: Salmonella enterica. As for the experimental part:
as §1, §2

The subject of assay [6] is Serratia marcescens. The description is as above. As for the experimental part: as §1, §2
Assay [7] relates to Shigella sp. The assay is described as above. As for the experimental part:
as §1, §2

The subject of assay [8] is Resistant Staphylococcus V-32. The assay is described as follows: Antibiotic activity vs. penicillin resistant Staphylococcus clinical isolates, MIC by gradient plate method. As for the experimental part: as §1, §2
The subject of assay [9] is Resistant Staphylococcus V-41. The description is as above. As for the experimental part: as §1, §2
Assay [10] concerns Resistant Staphylococcus V-84. Described as above. As for the experimental part: as §1, §2
Assay [11] has as its system Resistant Staphylococcus X-400. The assay is described as above. As for the experimental part:
as §1, §2

The subject of assay [12] is Resistant Staphylococcus X1.1. The assay is described as above. As for the experimental part: as §1, §2
The mark [13] stands for this setting: Staphylococcus, absence of serum (NS), read-out: MIC.

SMILES strings stand for the structures. Converted amounts (≈) assume the structure as drawn. Like-named read-outs stand apart in the source and are kept apart here. Some results are limits rather than exact numbers.

In the case of `Cn1nnnc1SCC1=C(C(=O)O)N2C(=O)C(NC(=O)C(NC(=O)NC(=O)c3ccco3)c3ccccc3)C2SC1` (stereo not drawn) [Test Compound A, 7-[α-(3-α-furoyl-1-ureido)-α-phenylacetamido]-3-(1-methyl-1H-tetrazole-5-ylthiomethyl)-3-cephem-4-carboxylic acid], the MIC – broadly, the lowest concentration found to suppress growth – in [1] is 7.5 µg/mL (≈ 12.5 µM); in assay [2], 7 µg/mL (≈ 11.7 µM); in [3], 5 µg/mL (≈ 8.35 µM); in assay [4] it was 12.3 µg/mL (≈ 20.5 µM); in [5] it was 6.8 µg/mL (≈ 11.4 µM); in [6] it was 19.5 µg/mL (≈ 32.6 µM). The MIC in assay [7] worked out at 5.5 µg/mL (≈ 9.19 µM); in [8] (absence of serum (NS)), 4.5 µg/mL (≈ 7.52 µM); in assay [8] (presence of serum (S)), 8 µg/mL; in [9] (absence of serum (NS)) it was 3 µg/mL (≈ 5.01 µM); in assay [9] (presence of serum (S)) it was 8 µg/mL; in assay [10] (absence of serum (NS)) it was 0.4 µg/mL (≈ 0.668 µM). Besides, the MIC in assay [10] (presence of serum (S)) was 1 µg/mL; in assay [11] (setting [13]), greater than 20 µg/mL; in assay [11] (presence of serum (S)) it was greater than 20 µg/mL; in assay [12] (absence of serum (NS)), 0.4 µg/mL (≈ 0.668 µM); in assay [12] (presence of serum (S)), 1 µg/mL.

As to `Cn1nnnc1SCC1=C(C(=O)O)N2C(=O)C(NC(=O)C(NC(=O)NC(=O)c3ccco3)c3ccc(O)cc3)C2SC1` (stereo not drawn) [Test Compound B, 7-[α-(3-α-furoyl-1-ureido)-α-(4-hydroxyphenyl)acetamido]-3-(1-methyl-1H-tetrazole-5-ylthiomethyl)-3-cephem-4-carboxylic acid], the minimal inhibitory concentration (MIC) in assay [1] was determined as 6.5 µg/mL (≈ 10.6 µM); in [2], 5.8 µg/mL (≈ 9.44 µM); in assay [3], 6.3 µg/mL (≈ 10.3 µM); in assay [4], 10.7 µg/mL (≈ 17.4 µM); in assay [5], 5.8 µg/mL (≈ 9.44 µM); in assay [6] it was 14.5 µg/mL (≈ 23.6 µM). Moreover, the MIC was 5.5 µg/mL (≈ 8.95 µM) in assay [7]; 13.7 µg/mL (≈ 22.3 µM) in assay [8] (absence of serum (NS)); greater than 20 µg/mL in [8] (presence of serum (S)); 5 µg/mL (≈ 8.14 µM) in assay [9] (absence of serum (NS)); greater than 20 µg/mL in [9] (presence of serum (S)); 1 µg/mL (≈ 1.63 µM) in assay [10] (absence of serum (NS)). Besides, the MIC in assay [10] (presence of serum (S)) is 1 µg/mL; in [11] (setting [13]), greater than 20 µg/mL; in assay [11] (presence of serum (S)) it was greater than 20 µg/mL; in assay [12] (absence of serum (NS)) it was 1 µg/mL (≈ 1.63 µM); in assay [12] (presence of serum (S)), 1 µg/mL.
